Key:
[1] = in vivo; conditions: rabbit, topical, 0.25 % w/v
[2] = octanol-water partition coefficient at pH 7.0; cited from earlier work
[3] = Slit lamp and fundus exams after topical ocular dosing in rabbits; conditions: Example 1 formulation, topical twice-a-day to both eyes, treated eyes

Question: For `COc1cc2nccc(Oc3ccc(NC(=O)C4(C(=O)Nc5ccc(F)cc5)CC4)cc3)c2cc1OC` [cabozantinib], which concentration at 5 day ([1]; pigmented, plasma) is on record?
Answer: < 12.5 ng/mL

Question: And the concentration at 5 day ([1]; posterior vitreous)?
Answer: 0.99 nM

Question: And the “Log P” value [2]?
Answer: 3.0

Question: What about the “slit lamp and fundus exams” value [3] of the same molecule?
Answer: completely normal except for slight conjuctival follicle formation

Reference: patent US10010610B2, “Compositions and methods for the treatment of intraocular neovascularization and/or leakage” (Retinal Therapies LLC, priority 2014, dated 2018)
